Laboratory results: paper PMC6961122 (Bioorganic & Medicinal Chemistry, 2020)
Read-outs that look alike come from different tables or passages of the source.

Columns and labels:
U87 cells = assay: Cell viability assay (PrestoBlue, 5 d) in U87 glioma cells; assay type: cell-based; settings: library screen, 5 d treatment, mean of three independent experiments in triplicates, read-out: EC50 U87 ± SEM
Method: (§1) The antiproliferative activity of a total of 100 compounds was tested against U87 and T98 glioma cell lines, using TMZ[3] and the Topoisomerase I inhibitor SN-38[18] as positive controls. Cells were treated with the library members for 5 d at three different concentrations (3, 30 and 300 µM) and cell viability determined using the PrestoBlue reagent. Half-maximal effective concentration (EC50) values were calculated from the corresponding dose-response curves and plotted in Fig. 2a as a heatmap to facilitate data analysis, with black meaning no activity and dark to light green to yellow transitions indicating decreasing EC50 values (=increasing potencies). Table 1 of the Suppl. Data contains the corresponding EC50 values ± SEM.
(§2) INK128 and SN-38 were used as positive controls. […] Structurally, these derivatives differed in the size of the alkyl group of the N1 position and the presence or absence of an oxygen atom in that moiety (see Suppl. Data).
(§3) U87 and T98 cells (ATCC) were cultured in DMEM (Gibco), supplemented with 10% (v/v) FBS (Gibco) and 2 mM L-Glutamine (Gibco) in a standard incubator (95% humidity, 5% CO2), and subcultured twice per week through trypsinization. G317 patient-derived glioma cells were established by the Glioma Cellular Genetics Resource (gcgr.org.uk) funded by Cancer Research UK. Ethics approval for use of patient-derived cells and early access confirmation to reagents from the Glioma Cellular Genetics Resource assured that all ethical issues according to UK legislation are fulfilled. G317 were cultured in DMEM/HAMS-F12 (Sigma) supplemented with 1.5 g L^−1 D-(+)-Glucose (Sigma), MEM non-essential aminoacids (Gibco), 0.015% (w/v) Penicillin-Streptomycin (Gibco), 0.012% (w/v) BSA (Gibco), 0.1 mM β-mercaptoethanol (Gibco), B27 (Gibco) and N2 supplements (Gibco). Cells were detached using accutase solution (Sigma) and subcultured once per week. Before adding to the cells, medium was supplemented with 10 ng ml^−1 mouse EGF (Preprotech), 10 ng ml^−1 human FGF (Preprotech), and 1 µg ml^−1 Laminin (Sigma).
(§4) 1 × 10^3 U87 cells/well, 5 × 10^2 T98 cells/well, 1 × 10^4 G317 cells/well, 1 × 10^4 HBVP cells/well and 1 × 10^4 bEnd3 cells/well were seeded in 96-well plates. After 48 h in culture, cells were treated with the inhibitors for 5 d. For GI50 determination, the viability of a triplicate sample of each experiment before treatment was measured with the PrestoBlue Reagent (Invitrogen), to establish a basepoint 0% of growth. […] ZIP Synergy scores were obtained with Synergy finder.[22] Viability percentage, EC50 and GI50 values were obtained using GraphPad Prism version 8.0.0 for Windows, GraphPad Software, San Diego, California USA, www.graphpad.com.

T98 cells = assay: Cell viability assay (PrestoBlue, 5 d) in T98 glioma cells; assay type: cell-based; settings: library screen, 5 d treatment, mean of three independent experiments in triplicates, read-out: EC50 T98 ± SEM
Method: as §1, §2, §3, §4

Row | SMILES | EC50 (U87 cells) [µM] | EC50 (T98 cells) [µM] | EC50 (U87 cells; Homo sapiens, U-87 MG, 120 h) [µM] | EC50 (T98 cells; Homo sapiens, T98, 120 h) [µM]
1 | Cc1ccc(-c2nn(CCN3CCOCC3)c3ncnc(N)c23)cc1 [eCF102] | > 30 | > 30 | – | –
2 | Cc1ccc(-c2nn(CCN3CCN(C)CC3)c3ncnc(N)c23)cc1 [eCF103] | > 30 | > 30 | – | –
3 | Cc1ccc(-c2nn(CCN3CCN(CCO)CC3)c3ncnc(N)c23)cc1 [eCF104] | > 30 | > 30 | – | –
4 | Cc1ccc(-c2nn(CCN3CCN(CCN(C)C)CC3)c3ncnc(N)c23)cc1 [eCF105] | > 30 | > 30 | – | –
5 | Cc1ccc(-c2nn(CCN3CCC(O)CC3)c3ncnc(N)c23)cc1 [eCF106] | > 30 | > 30 | – | –
6 | Cc1ccc(-c2nn(CCN3CCC(CO)CC3)c3ncnc(N)c23)cc1 [eCF107] | > 30 | > 30 | – | –
7 | Cc1ccc(-c2nn(CCN3CCC(N(C)C)CC3)c3ncnc(N)c23)cc1 [eCF109] | > 30 | 26.3 ± 7.3 | – | –
8 | Cc1ccc(-c2nn(CCN3CCC(C)CC3)c3ncnc(N)c23)cc1 [eCF110] | > 30 | > 30 | – | –
9 | Cc1ccc(-c2nn(CCN3CCCCC3)c3ncnc(N)c23)cc1 [eCF111] | > 30 | > 30 | – | –
10 | Cc1ccc(-c2nn(CCN3CCC(CN(C)C)CC3)c3ncnc(N)c23)cc1 [eCF112] | 6.63 ± 1.44 | 6.28 ± 1.91 | – | –
11 | Cc1ccc(-c2nn(CCN3CCC(CCN(C)C)CC3)c3ncnc(N)c23)cc1 [eCF113] | 6.74 ± 1.48 | 5.72 ± 1.95 | – | –
12 | CCOC(Cn1nc(-c2ccc3ncccc3c2)c2c(N)ncnc21)OCC [eCF203] | > 30 | > 30 | – | –
13 | CCOC(Cn1nc(-c2ccc(OC)c(OC)c2)c2c(N)ncnc21)OCC [eCF204] | > 30 | > 30 | – | –
14 | CCOC(Cn1nc(-c2cccc(O)c2)c2c(N)ncnc21)OCC [eCF205] | > 30 | > 30 | – | –
15 | CCOC(Cn1nc(-c2ccoc2)c2c(N)ncnc21)OCC [eCF206] | > 30 | > 30 | – | –
16 | CCOC(Cn1nc(-c2cccc(NC(=O)OC(C)(C)C)c2)c2c(N)ncnc21)OCC [eCF207] | > 30 | > 30 | – | –
17 | CCOC(Cn1nc(-c2cccc(C(N)=O)c2)c2c(N)ncnc21)OCC [eCF208] | > 30 | > 30 | – | –
18 | CCOC(Cn1nc(-c2ccc(C(N)=O)cc2)c2c(N)ncnc21)OCC [eCF209] | > 30 | > 30 | – | –
19 | CN(C)CC1CCN(CCn2nc(-c3ccc4[nH]ccc4c3)c3c(N)ncnc32)CC1 [eCF221] | 18.7 ± 4.91 | 16.8 ± 3.66 | – | –
20 | CN(C)CC1CCN(CCn2nc(-c3ccc4ncccc4c3)c3c(N)ncnc32)CC1 [eCF223] | > 30 | > 30 | – | –
21 | COc1ccc(-c2nn(CCN3CCC(CN(C)C)CC3)c3ncnc(N)c23)cc1OC [eCF224] | > 30 | > 30 | – | –
22 | CN(C)CC1CCN(CCn2nc(-c3cccc(O)c3)c3c(N)ncnc32)CC1 [eCF225] | > 30 | > 30 | – | –
23 | CN(C)CC1CCN(CCn2nc(-c3ccoc3)c3c(N)ncnc32)CC1 [eCF226] | > 30 | > 30 | – | –
24 | CN(C)CC1CCN(CCn2nc(C#Cc3ccccc3)c3c(N)ncnc32)CC1 [eCF230] | 18.2 ± 1.2 | 13.7 ± 1.84 | – | –
25 | Nc1ncnc2c1c(-c1cnc3[nH]ccc3c1)nn2CC1OCCO1 [eCF307] | 11.3 ± 2.56 | 13.1 ± 2.65 | – | –
26 | COC(Cn1nc(-c2cnc3[nH]ccc3c2)c2c(N)ncnc21)OC [eCF308] | – | – | 6.16 ± 1.22 | 7.34 ± 1.56
27 | Nc1ncc(-c2ccc(-c3nn(CC4CCCC4)c4ncnc(N)c34)cc2)o1 [eCF341] | 20.3 ± 2.63 | 26.2 | – | –
28 | CN(C)C1CCN(CCn2nc(-c3cnc4[nH]ccc4c3)c3c(N)ncnc32)CC1 [eCF502] | 15.2 ± 2.36 | 17.6 ± 3.93 | – | –
29 | COc1cc(-c2nn(CCN3CCC(N(C)C)CC3)c3ncnc(N)c23)ccc1NC(=O)OC(C)(C)C [eCF506] | – | – | 13.6 ± 0.809 | 9.97 ± 4.88
30 | COc1cc(-c2nn(CCN3CCC(N4CCCC4)CC3)c3ncnc(N)c23)ccc1NC(=O)OC(C)(C)C [eCF518] | 12 ± 0.168 | 3.48 ± 0.567 | – | –
